From ChEMBL document CHEMBL5537126, “Advances in targeting Phosphodiesterase 1: From mechanisms to potential therapeutics” (Eur J Med Chem, 2024)
One block for each molecule: values may come before it.

Assays:
[1] = target: Dual specificity calcium/calmodulin-dependent 3',5'-cyclic nucleotide phosphodiesterase 1C (Homo sapiens, UniProt Q14123); test: Inhibition of PDE1C (unknown origin) using [3H]-cAMP as substrate incubated for 1 hr by SPA assay
[2] = target: T1, Dual specificity calcium/calmodulin-dependent 3',5'-cyclic nucleotide phosphodiesterase 1B (Homo sapiens, UniProt Q01064); test: Inhibition of PDE1B (unknown origin)
[3] = Inhibition of PDE1 (unknown origin); design: species or system Homo sapiens
[4] = Inhibition of PDE9 (unknown origin) by fluorescent based assay; design: species or system Homo sapiens
[5] = Inhibition of PDE3 (unknown origin) by fluorescent based assay; design: species or system Homo sapiens
[6] = target: cGMP-specific 3',5'-cyclic phosphodiesterase (Homo sapiens, UniProt O76074); test: Inhibition of PDE5 (unknown origin)
[7] = target: T1, Dual specificity calcium/calmodulin-dependent 3',5'-cyclic nucleotide phosphodiesterase 1B; test: Inhibition of PDE1B (unknown origin) using [3H]-cGMP substrate incubated for 15 mins by liquid scintillation counting method
[8] = Metabolic stability in rat liver microsomes assessed as half life; assay type: ADME, Microsome
[9] = target: T2, Dual specificity calcium/calmodulin-dependent 3',5'-cyclic nucleotide phosphodiesterase 1A (Homo sapiens, UniProt P54750); test: Inhibition of PDE1A (unknown origin) using [3H]-cAMP as substrate incubated for 1 hr by SPA assay
[10] = target: T1, Dual specificity calcium/calmodulin-dependent 3',5'-cyclic nucleotide phosphodiesterase 1B; test: Inhibition of PDE1B (unknown origin) using [3H]-cAMP as substrate incubated for 1 hr by SPA assay
[11] = target: Phosphodiesterase 4 (Homo sapiens) (UniProt P27815+Q08499+Q07343+Q08493); test: Inhibition of PDE4 (unknown origin) at 10 uM relative to control; assay type: protein assay
[12] = Binding affinity to PDE1 (unknown origin) assessed as inhibition constant; design: species or system Homo sapiens
[13] = target: T2, Dual specificity calcium/calmodulin-dependent 3',5'-cyclic nucleotide phosphodiesterase 1A; test: Inhibition of PDE1A3 (unknown origin)
[14] = target: cGMP-inhibited 3',5'-cyclic phosphodiesterase 3A (Homo sapiens, UniProt Q14432); test: Inhibition of PDE3A (unknown origin)
[15] = target: High affinity 3',5'-cyclic-AMP phosphodiesterase 7A (Homo sapiens, UniProt Q13946); test: Inhibition of PDE7A (unknown origin)
[16] = target: High affinity cGMP-specific 3',5'-cyclic phosphodiesterase 9A (Homo sapiens, UniProt O76083); test: Inhibition of PDE9A (unknown origin)
[17] = target: 3',5'-cyclic-AMP phosphodiesterase 4D (Homo sapiens, UniProt Q08499); test: Inhibition of PDE4D (unknown origin)
[18] = target: cGMP-dependent 3',5'-cyclic phosphodiesterase (Homo sapiens, UniProt O00408); test: Inhibition of full-length recombinant human PDE2A using [3H]-cGMP as substrate incubated for 10 mins by SPA assay
[19] = target: High affinity cAMP-specific and IBMX-insensitive 3',5'-cyclic phosphodiesterase 8A (Homo sapiens, UniProt O60658); test: Inhibition of full-length recombinant human PDE8A using [3H]-cAMP as substrate incubated for 10 mins by SPA assay
[20] = target: cGMP-inhibited 3',5'-cyclic phosphodiesterase 3B (Homo sapiens, UniProt Q13370); test: Binding affinity to PDE3B (unknown origin) using [3H]cAMP as substrate assessed as inhibition constant incubated for 1 hrs by […] assay

T2 sequence (P54750 whole entry): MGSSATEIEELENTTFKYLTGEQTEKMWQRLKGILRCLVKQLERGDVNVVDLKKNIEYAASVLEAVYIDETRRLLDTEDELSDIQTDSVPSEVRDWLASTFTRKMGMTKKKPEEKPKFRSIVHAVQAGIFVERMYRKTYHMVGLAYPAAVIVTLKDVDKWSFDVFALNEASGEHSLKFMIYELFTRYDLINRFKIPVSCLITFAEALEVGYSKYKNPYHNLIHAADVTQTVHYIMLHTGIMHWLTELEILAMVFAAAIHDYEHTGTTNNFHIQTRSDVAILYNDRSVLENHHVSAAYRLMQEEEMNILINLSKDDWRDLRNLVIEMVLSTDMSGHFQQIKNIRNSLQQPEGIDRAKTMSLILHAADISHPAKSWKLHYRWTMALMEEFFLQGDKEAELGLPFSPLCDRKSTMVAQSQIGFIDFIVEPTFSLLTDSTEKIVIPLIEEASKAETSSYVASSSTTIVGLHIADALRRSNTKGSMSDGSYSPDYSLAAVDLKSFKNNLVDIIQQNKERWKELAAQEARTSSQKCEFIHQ
Chain of Dual specificity calcium/calmodulin-dependent 3',5'-cyclic nucleotide phosphodiesterase 1C (Q14123 whole entry): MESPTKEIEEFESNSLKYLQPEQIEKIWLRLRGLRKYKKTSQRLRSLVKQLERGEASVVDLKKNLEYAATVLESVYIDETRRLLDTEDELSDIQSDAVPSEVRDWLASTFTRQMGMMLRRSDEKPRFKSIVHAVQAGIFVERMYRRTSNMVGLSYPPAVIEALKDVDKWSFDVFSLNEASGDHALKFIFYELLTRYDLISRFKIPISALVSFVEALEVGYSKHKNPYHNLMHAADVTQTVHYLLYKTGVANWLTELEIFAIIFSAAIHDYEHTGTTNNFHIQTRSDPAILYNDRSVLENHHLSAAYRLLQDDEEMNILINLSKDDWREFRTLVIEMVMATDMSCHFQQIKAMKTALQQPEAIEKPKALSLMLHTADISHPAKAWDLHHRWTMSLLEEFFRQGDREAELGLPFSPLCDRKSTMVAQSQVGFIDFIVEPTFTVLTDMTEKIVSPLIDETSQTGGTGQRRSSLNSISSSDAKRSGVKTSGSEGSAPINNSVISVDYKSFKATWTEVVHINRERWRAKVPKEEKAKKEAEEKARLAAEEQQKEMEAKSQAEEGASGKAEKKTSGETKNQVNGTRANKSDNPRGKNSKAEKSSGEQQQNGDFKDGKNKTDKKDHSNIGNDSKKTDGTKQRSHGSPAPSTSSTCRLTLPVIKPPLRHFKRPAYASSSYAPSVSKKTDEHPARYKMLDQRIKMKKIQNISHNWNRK
T1 sequence (Q01064 whole entry): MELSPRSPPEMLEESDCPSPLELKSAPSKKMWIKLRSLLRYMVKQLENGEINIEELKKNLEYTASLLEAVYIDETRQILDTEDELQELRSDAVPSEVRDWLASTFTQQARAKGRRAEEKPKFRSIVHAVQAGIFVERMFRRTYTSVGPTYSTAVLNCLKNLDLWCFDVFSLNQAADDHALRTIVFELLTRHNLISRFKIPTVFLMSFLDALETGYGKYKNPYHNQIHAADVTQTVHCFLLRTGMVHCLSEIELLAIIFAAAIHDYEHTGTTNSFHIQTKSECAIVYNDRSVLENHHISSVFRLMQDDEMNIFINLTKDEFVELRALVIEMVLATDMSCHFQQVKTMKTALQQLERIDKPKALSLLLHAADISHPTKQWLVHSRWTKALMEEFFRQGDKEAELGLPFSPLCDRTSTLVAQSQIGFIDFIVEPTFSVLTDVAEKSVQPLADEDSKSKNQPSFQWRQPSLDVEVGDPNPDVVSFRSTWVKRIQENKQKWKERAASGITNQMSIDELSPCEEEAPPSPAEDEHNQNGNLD
Chain of High affinity 3',5'-cyclic-AMP phosphodiesterase 7A (Q13946 whole entry): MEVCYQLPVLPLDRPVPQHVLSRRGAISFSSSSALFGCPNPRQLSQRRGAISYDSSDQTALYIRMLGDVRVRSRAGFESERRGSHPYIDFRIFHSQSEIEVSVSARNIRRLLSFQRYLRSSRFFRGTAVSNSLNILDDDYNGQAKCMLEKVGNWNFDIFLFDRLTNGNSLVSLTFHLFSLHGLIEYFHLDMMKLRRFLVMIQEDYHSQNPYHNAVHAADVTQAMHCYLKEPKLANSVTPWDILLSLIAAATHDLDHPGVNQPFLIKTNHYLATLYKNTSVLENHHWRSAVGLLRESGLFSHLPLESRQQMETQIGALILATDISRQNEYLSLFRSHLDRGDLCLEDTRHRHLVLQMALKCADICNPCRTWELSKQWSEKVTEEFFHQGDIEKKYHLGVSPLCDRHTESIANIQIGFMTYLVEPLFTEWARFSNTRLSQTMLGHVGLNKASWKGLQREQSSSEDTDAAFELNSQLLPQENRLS
Chain of cGMP-inhibited 3',5'-cyclic phosphodiesterase 3A (Q14432 whole entry): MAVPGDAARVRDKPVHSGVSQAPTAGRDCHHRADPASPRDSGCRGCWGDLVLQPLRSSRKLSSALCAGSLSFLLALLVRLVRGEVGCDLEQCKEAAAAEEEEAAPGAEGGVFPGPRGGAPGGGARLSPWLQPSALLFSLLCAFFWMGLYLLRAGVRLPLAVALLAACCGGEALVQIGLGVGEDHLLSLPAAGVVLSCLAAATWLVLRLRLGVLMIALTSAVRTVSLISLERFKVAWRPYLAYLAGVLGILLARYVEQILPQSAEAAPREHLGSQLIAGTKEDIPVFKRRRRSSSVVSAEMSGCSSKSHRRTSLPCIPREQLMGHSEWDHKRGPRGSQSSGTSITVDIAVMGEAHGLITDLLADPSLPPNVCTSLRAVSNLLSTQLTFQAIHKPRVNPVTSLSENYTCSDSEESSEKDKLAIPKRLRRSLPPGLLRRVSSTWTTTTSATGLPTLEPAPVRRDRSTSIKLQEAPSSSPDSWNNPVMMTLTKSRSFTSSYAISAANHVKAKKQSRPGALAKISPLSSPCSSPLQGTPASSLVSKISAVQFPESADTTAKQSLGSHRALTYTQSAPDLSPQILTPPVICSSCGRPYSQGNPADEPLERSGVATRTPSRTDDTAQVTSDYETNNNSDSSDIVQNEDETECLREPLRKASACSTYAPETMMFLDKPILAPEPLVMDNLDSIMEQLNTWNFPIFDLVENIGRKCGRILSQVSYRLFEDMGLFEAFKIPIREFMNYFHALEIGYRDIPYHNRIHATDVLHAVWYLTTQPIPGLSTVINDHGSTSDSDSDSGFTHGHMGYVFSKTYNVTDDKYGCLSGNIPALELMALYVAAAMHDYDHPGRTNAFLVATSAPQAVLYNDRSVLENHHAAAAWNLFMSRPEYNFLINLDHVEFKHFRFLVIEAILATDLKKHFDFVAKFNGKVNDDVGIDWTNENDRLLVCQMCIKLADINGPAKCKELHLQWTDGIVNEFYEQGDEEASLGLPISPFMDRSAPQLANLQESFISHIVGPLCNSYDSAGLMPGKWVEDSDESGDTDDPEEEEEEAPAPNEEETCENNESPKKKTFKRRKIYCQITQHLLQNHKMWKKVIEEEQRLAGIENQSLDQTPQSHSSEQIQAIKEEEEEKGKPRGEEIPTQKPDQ
Chain of High affinity cAMP-specific and IBMX-insensitive 3',5'-cyclic phosphodiesterase 8A (O60658 whole entry): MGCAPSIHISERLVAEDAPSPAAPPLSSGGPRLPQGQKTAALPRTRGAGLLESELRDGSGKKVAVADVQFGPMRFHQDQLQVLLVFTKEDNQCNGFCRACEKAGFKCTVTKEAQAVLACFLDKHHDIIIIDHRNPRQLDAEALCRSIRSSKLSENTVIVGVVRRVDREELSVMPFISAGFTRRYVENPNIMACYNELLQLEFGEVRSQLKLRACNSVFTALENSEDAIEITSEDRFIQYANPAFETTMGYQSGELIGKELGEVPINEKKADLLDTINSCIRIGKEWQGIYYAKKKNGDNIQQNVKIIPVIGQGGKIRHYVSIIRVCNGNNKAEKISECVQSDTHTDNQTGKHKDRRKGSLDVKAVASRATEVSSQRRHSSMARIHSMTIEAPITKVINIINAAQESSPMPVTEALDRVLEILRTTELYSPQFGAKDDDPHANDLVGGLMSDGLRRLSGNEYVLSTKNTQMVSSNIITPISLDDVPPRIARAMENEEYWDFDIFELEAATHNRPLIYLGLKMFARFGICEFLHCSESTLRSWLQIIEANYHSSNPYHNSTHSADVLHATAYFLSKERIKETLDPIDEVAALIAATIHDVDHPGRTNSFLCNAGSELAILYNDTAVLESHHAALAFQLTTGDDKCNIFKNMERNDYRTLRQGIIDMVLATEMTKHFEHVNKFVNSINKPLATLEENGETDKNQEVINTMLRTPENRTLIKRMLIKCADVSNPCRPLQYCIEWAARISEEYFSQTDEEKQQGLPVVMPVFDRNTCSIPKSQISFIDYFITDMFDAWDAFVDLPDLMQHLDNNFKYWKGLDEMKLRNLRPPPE
Chain of High affinity cGMP-specific 3',5'-cyclic phosphodiesterase 9A (O76083 whole entry): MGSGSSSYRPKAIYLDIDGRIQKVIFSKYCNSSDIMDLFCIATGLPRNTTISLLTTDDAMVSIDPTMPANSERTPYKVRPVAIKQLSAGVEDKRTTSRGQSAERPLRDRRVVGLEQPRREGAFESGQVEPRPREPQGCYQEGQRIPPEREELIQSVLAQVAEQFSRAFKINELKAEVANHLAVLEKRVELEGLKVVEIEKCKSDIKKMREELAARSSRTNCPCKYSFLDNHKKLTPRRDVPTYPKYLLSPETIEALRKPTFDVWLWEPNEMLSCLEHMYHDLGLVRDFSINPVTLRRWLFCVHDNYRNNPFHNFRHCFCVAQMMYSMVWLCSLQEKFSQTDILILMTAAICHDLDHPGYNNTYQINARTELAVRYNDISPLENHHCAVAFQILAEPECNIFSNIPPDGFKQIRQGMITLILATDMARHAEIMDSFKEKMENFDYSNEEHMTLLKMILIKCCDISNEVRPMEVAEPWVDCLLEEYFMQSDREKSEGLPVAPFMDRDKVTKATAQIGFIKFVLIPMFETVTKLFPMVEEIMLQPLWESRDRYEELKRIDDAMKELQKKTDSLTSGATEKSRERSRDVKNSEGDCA

SMILES: COc1cc2ncnc(N3C[C@@H](OO)[C@@H]4OC[C@@H](OC(C)=O)[C@@H]43)c2cc1OC
IC50 [1]: 2200 nM

IC50 [2]: < 100 nM
SMILES: COc1ccc(Cn2c(=O)n3ncnc3c3cc(CN4CCCOCC4)sc32)cc1

IC50 [3]: 0.08 µM
IC50 [4]: 58 nM
SMILES: C[C@@H](Nc1nc2c(cnn2C2CCCC2)c(=O)[nH]1)c1ccc(Cl)cc1

IC50 [3]: 8 µM
IC50 [5]: 240 nM
IC50 [6]: 10 µM
SMILES: COCc1nc2c([nH]1)c(=O)n(C)c(=O)n2CC(C)C

IC50 [7]: 3.8 nM
half-life [8]: 4.5 min
SMILES: Cn1c(=O)c2c(Nc3ccccc3)n(Cc3ccc(-c4cccc(F)n4)cc3)nc2n(CC2CC2)c1=O

IC50 [1]: 2400 nM
SMILES: COc1cc2ncnc(N3C[C@@H](Cl)[C@@H]4OC[C@@H](OC)[C@@H]43)c2cc1OC

IC50 [3]: 0.396 µM
SMILES: CCCc1nn(C)c2c(=O)[nH]c(-c3cc(S(=O)(=O)N4CCN(C)CC4)ccc3OCC)nc12

IC50 [9]: 2 µM
SMILES: COCCOC(=O)C1=C(C)NC(C)=C(C(=O)OC(C)C)C1c1cccc([N+](=O)[O-])c1 (stereo not given) [NIMODIPINE]

IC50 [9]: 4.66 µM
IC50 [10]: 2820 nM
IC50 [1]: 573 nM
inhibition [11]: 27%
SMILES: COc1ccc2c(N3C[C@@H](Cl)[C@@H]4OC[C@@H](OCc5ccccc5)[C@@H]43)ncnc2c1OC

IC50 [3]: 30 µM
SMILES: CCOC(=O)C1=C[C@]2(CC)CCCN3CCc4c(n1c1ccccc41)[C@@H]32 [VINPOCETINE]

Ki [12]: 0.058 nM
SMILES: CN1C(=O)c2c(nn(Cc3ccc(-c4cccc(F)n4)cc3)c2Nc2ccccc2)N2C1=N[C@@H]1CCC[C@@H]12 [LENRISPODUN PHOSPHATE]

IC50 [13]: 32 nM
IC50 [2]: 790 nM
SMILES: O=c1c2c(Cc3ccccc3)n[nH]c2c2cccnc2n1-c1ccccc1

IC50 [3]: 0.0029 µM
IC50 [14]: > 10 µM
half-life [8]: 15.8 min
IC50 [15]: > 10 µM
IC50 [16]: > 10 µM
SMILES: C[C@@H](Nc1nc2c(cnn2C(C)(C)C)c(=O)n1Cc1ccc(F)cc1)c1ccc(Cl)cc1

IC50 [7]: 21 nM
IC50 [17]: 1500 nM
half-life [8]: 28.5 min
IC50 [18]: 8.52 µM
IC50 [15]: > 2.5 µM
IC50 [19]: > 10 µM
SMILES: Cn1c(=O)c2c(Nc3ccc(F)cc3)n(Cc3ccc(S(C)(=O)=O)cc3)nc2n(CC2CC2)c1=O

IC50 [3]: 479 µM
SMILES: Cn1c(=O)c2c(ncn2C)n(C)c1=O [CAFFEINE]

Ki [12]: 3700 nM
IC50 [6]: 6.5 µM
Ki [20]: 35 µM
SMILES: CNc1ncnc2c1ncn2Cc1ccccc1F [BW-A78U]
